{"source": "patent US11020405B2", "about": "“Method for prevention or treatment of diabetic complications” (KANGWON NATIONAL UNIVERSITY UNIVERSITY-INDUSTRY COOPERATION …, priority 2017, dated 2021)", "key": {"[1]": {"tested_on": "endothelial monolayer of HRECs", "experiment": "Analysis of cell permeability (FITC-dextran, Transwell)", "format": "cell-based, human", "settings": "HREC monolayer, 10 ng/mL VEGF 90 min with 20 μM midazolam, 5 μM BAPTA-AM, 1 mM NAC, 0.5 μM Trolox, 50 μM cystamine or 20 μM MDC; 40 kDa FITC-dextran 60 min (FIG. 7)", "description": "The HRECs were cultured (e.g. about 5 days) until the cell confluence thereof reached an appropriate level on gelatin-coated 0.4 μm polycarbonate membranes of Transwell Permeable Supports (Costar, Corning, N.Y.), followed by the respective treatments below and culture for 30 min. Here, treatment with 10 ng/mL VEGF was performed for 90 min. Thereafter, the HRECs were treated with 1 mg/mL 40 kDa FITC-dextran (Sigma-Aldrich), incubated for 60 min, after which the amount of FITC-dextran that was diffused into the lower chamber through the endothelial monolayer of HERCs was measured using a microplate spectrofluorometer (Molecular Devices, Sunnyvale, Calif.)."}, "[2]": {"tested_on": "kidneys of diabetic mice", "experiment": "Hyperglycemia-induced renal vascular leakage in diabetic mice (FITC-dextran)", "format": "in vivo, C57BL/6 mice", "settings": "10 mg/kg midazolam intraperitoneal daily for 2 days (FIG. 20)", "description": "FIGS. 20A and 20B show the preventive effects of midazolam against hyperglycemia-induced renal vascular leakage in diabetic mice. Six-week-old male C57BL/6 mice were administered with streptozotocin (150 mg/kg body weight) to give diabetic mouse models. Two weeks after streptozotocin injection, diabetic mice were administered 10 mg/kg midazolam by intraperitoneal injection daily for 2 days, and vascular leakage was investigated. The body weight of mice were measure in normal (19.9±0.3 g), diabetic (17.7±0.3 g), and midazolam supplemented diabetic mice (17.7±0.3 g). Blood glucose levels were also monitored in normal (123.5±6.5 mg/dL), diabetic (505.0±89.0 mg/dL), and midazolam supplemented diabetic mice (500.3±63.3 mg/dL). The mice were anesthetized with 3% isoflurane, and 1.25 mg of FITC-dextran was injected into the right ventricle of each mouse and allowed to circulate for 5 min. The kidneys were dissected, fixed, and embedded in OCT compound. Cryosections of kidneys were stained with nuclear counterstaining with DAPI. Representative images of vascular leakage in kidneys are shown in additional FIG. 20A. Scale bars, 100 μm. The results of vascular leakage quantitatively analyzed by measuring the fluorescence intensity of FITC-dextran in the kidneys are shown in additional FIG. 20B. (n=4 for normal and diabetic, n=6 for diabetic+Midazolam)."}, "[3]": {"tested_on": "retinal vessels of diabetic mice", "experiment": "Fluorescein angiography for mouse model (retinal vascular leakage)", "format": "in vivo, C57BL/6 mice", "settings": "intravitreal 2 μL of 2 mM midazolam, 2 μM cystamine or 500 mM MDC (FIGS. 16, 17)"}, "[4]": {"tested_on": "TGase", "experiment": "Analysis of TGase activity in retinas of diabetic mouse model", "format": "in vivo, C57BL/6 mice", "settings": "intravitreal 2 μL of 2 mM midazolam, 2 μM cystamine or 500 mM MDC (FIGS. 14, 15)", "description": "6-week-old male C57BL/6 mice (DBL, EumSeong, Korea) were administered with streptozotocin (Sigma-Aldrich) dissolved in a 100 mM citrate buffer (pH 4.5) through intraperitoneal injection in an amount of 150 mg each per kg of mouse weight to give diabetic mouse models. In the diabetic mouse models, the blood glucose level was 19 mM or more when not fasting, and polyuria and diabetes, considered signs of diabetes, were observed. […]\n48 μL of 100 mM 5-(biotinamido)pentylamine was injected into the left ventricle of each of normal mice (Normal), midazolam-administered normal mice (Midazolam), diabetic mice (Diabetic), midazolam-administered diabetic mice (Diabetic+Midazolam), flumazenil- and midazolam-administered diabetic mice (Diabetic+flumazenil+Midazolam), cystamine-administered diabetic mice (Diabetic+cystamine) and MDC-administered diabetic mice (Diabetic+MDC) and circulated for 10 min, after which cervical dislocation was performed, and the eyeballs were extracted, fixed with 4% paraformaldehyde for 45 min, incised and subjected to permeation treatment for 30 min. The obtained retinal samples were incubated with a blocking solution for 30 min, treated with FITC-conjugated streptavidin (1:200, v/v), stained for 1 hr, and measured using confocal microscopy. […]"}, "[5]": {"tested_on": "β-catenin", "experiment": "Analysis of adherens junction (β-catenin staining)", "format": "cell-based, human", "settings": "HRECs, 10 ng/mL VEGF 90 min with 20 μM midazolam, 5 μM BAPTA-AM, 1 mM NAC, 0.5 μM Trolox, 50 μM cystamine or 20 μM MDC (FIGS. 8, 9)", "description": "Purchased from Applied Cell Biology Research Institute (Cell Systems, Kirkland, Wash.), human retinal endothelial cells (HRECs) were cultured in an M19 medium, containing 20% FBS, 3 ng/mL bFGF, 5 U/mL heparin, 100 U/mL penicillin and […], in a 2% gelatin-coated plate.\nBefore the following Test Examples 2 to 7, the HRECs were cultured for 6 hr in a medium containing 1% FBS and an antibiotic agent, thus preparing HRECs of Test Example 1.\nThe HRECs of Test Example 1 were subjected to the respective treatments below and cultured for 30 min. Here, treatment with 10 ng/mL VEGF was performed for 90 min. Thereafter, the HRECs were treated with 1 mM 5-(biotinamido)pentylamine, incubated for 1 hr, fixed with 3.7% formaldehyde, treated with 0.2% triton X-100, treated with a blocking solution containing 138 mM NaCl, 0.1% Tween 20 and 2% BSA dissolved in a 20 mM Tris (pH 7.6) buffer, incubated for 30 min, incubated with a monoclonal β-catenin antibody (1:200; Santa Cruz Biotechnology) for 12 hr or more, incubated with a FITC-conjugated goat anti-mouse antibody, and measured using confocal microscopy. Some (the following i), ii), iii), iv)) of the results are shown in FIG. 8, and the β-catenin concentrations in the portions represented by the dotted lines in FIG. 8 are shown in FIG. 9. With reference to FIG. 9, 10 randomly selected cells were measured to determine the fluorescence intensity of single cells and thus quantify β-catenin.\nβ-catenin, which is a protein that mediates adherens junction like VE-cadherin, was analyzed to evaluate adherens junction."}, "[6]": {"tested_on": "VEGF", "experiment": "VEGF-induced vascular leakage in mouse ear (evans blue dye)", "format": "in vivo, C57BL/6 mice", "settings": "24 hr before evans blue dye, 30 ng VEGF intradermally (FIG. 23)", "description": "Six-week-old male C57BL/6 mice were administered 5 or 10 mg/kg midazolam by intraperitoneal injection. After 24 hr, mice were intravenously injected with 45 mg/kg evans blue dye. After 30 min circulation, 10 μl VEGF solution (30 ng) was injected intradermally into the dorsal part of ears. Representative images of vascular leakage in ears are shown in additional FIG. 23 (n=2/group)."}}}
{"smiles": "Cc1ncc2n1-c1ccc(Cl)cc1C(c1ccccc1F)=NC2", "note": "[midazolam]", "values": [{"measurement": "FITC-dextran diffused into lower chamber (cell permeability) / adherens junction disruption due to VEGF", "setting": "[1]", "value": "prevented the adherens junction disruption due to VEGF and thus FITC-dextran was not diffused"}, {"measurement": "renal vascular leakage (FITC-dextran extravasation)", "setting": "[2]", "value": "blocked by midazolam administration"}, {"measurement": "retinal vascular leakage compared to normal mice", "setting": "[3]", "value": "vascular leakage was prevented"}, {"measurement": "TGase activity in retina compared to normal mice", "setting": "[4]", "value": "an increase in TGase activation was suppressed"}, {"measurement": "β-catenin concentration / adherens junction disruption due to VEGF", "setting": "[5]", "value": "exhibited the effect of preventing the adherens junction disruption due to VEGF"}, {"measurement": "VEGF-induced vascular leakage in mouse ear", "setting": "[6]; 5 mg/kg midazolam intraperitoneal", "value": "not at 5 mg/kg"}, {"measurement": "VEGF-induced vascular leakage in mouse ear", "setting": "[6]; 10 mg/kg midazolam intraperitoneal", "value": "suppressed"}]}
